Earlier results as cited in patent publication US6949518B1, “Methods for treating macular degeneration with topiramate” (priority 2003, dated 2005).

What was measured:
[1] = elimination predominantly unchanged via the renal route
[2] = test system: carbonic anhydrase
[3] = test system: patients with type 2 diabetes

For `CC1(C)O[C@@H]2[C@@H](CO[C@@]3(COS(N)(=O)=O)OC(C)(C)O[C@@H]23)O1` [topiramate, 2,3:4,5-Di-O-isopropylidene-β-D-fructopyranose sulfamate], the “solubility in acetone, chloroform, dimethylsulfoxide, and ethanol” value (organic solvents) is given as “freely soluble”, the “pH of saturated solution” value (saturated solution) is given as 6.3 and the “plasma t½” value [1] is given as 20 to 30 h. The carbonic anhydrase inhibition [2] was “weak carbonic anhydrase inhibitor”, the dendrite length ([3]; by the end of trial) was “increased” and the peroneal nerve amplitude ([3]; by the end of trial) was “increased”. For the same compound, the total neuropathy scores ([3]; end of trial, decreased from baseline 14, 11 patients, 25 mg/day titrated over 42 days to maximum tolerated dose or 100 mg/day, then 84 more days) was 11.8.
